Experiment [1] has as its system cGAS activity in reporter THP1 cell line. In words: Cellular assay to measure cGAS activity (ISRE-Gaussia luciferase reporter THP1 cells, ISD transfection). The class given is cell-based. The note with it: Homo sapiens, THP-1, 2 μg/mL ISD transfection, 16 hours, luciferase luminescence. On the procedure:
Cellular assay to measure cGAS activity: Reporter THP1 cell line harboring a gene encoding Gaussia Luciferase under the control of 5 tandem repeats of interferon-stimulated response elements (ISRE) fused to an ISG54 minimal promoter was used to test inhibition of cGAS activity by synthetic compounds in human cells. These cells were plated on 96-well plates at 0.3×10^6/well and incubated with serial dilutions of compounds or DMSO for 5 min, followed by transfection of 2 μg/mL of ISD (Interferon Stimulatory DNA, a 45 bp DNA oligo) or mock transfected using lipofectamine 2000 (Life Technology) method, according to manufacturer's instructions. 16 hours later, 15 μL of the media from each well was transferred to a new plate, 50 μL of solution containing 50 mM Hepes-NaOH, pH 6.5, 50 mM NaCl, 10 mM EDTA, 1 μM of coeleanterazine is added to each well and luminescence is measured immediately. Fold increase in luminescence compared to mock transfection was plotted against concentrations of each compound, and IC50 is calculated using Graphpad. To evaluate the specificity of a compound, the same procedure is performed except that cells are transfected with 2 μg/mL […] or infected with Sendai Virus (SeV) at 50 Unit/mL, which are known to activate the RIG-I-MAVS pathway. A specific inhibitory compound should inhibit interferon induction by DNA but have minimal effect on poly(I:C) or Sendai virus induced interferon reporter gene expression.
The letter codes for cGAS IC50 include: A (<2 μM); B (2-10 μM); C (>10 μM).

Experiment [2] has as its target T1, recombinant human cGAS (aa147-522) (Homo sapiens, UniProt Q8N884).
T1 construct: recombinant human cGAS (aa147-522); His6-SUMO (N, cleaved yes); made in house; host or cells: E. coli BL21/pLys
In words: In vitro inhibition assay of cGAS activity (KinaseGlo, ATP consumption). The note with it: Herring testis DNA, 6.6 μM ATP, 0.1 mM GTP, 37° C. 20 minutes. The format is biochemical. On the procedure:
Expression and Purification of Recombinant cGAS Protein: cDNA encoding full-length or amino acids 147-520 of human cGAS was inserted into a modified pET28a vector containing an in-frame His6-SUMO tag. The E. coli strain BL21/pLys harboring the plasmid was induced with 0.5 mM IPTG at 18° C. overnight. His6-SUMO tag was removed by a SUMO protease digestion following purification of the His6-SUMO-cGAS as described previously (Sun et al, 2013, Science 339, 786).
In vitro inhibition assay of cGAS activity: A 60 μL mixture containing 20 mM Tris-Cl, pH 7.5, 5 mM MgCl2, 0.2 mg/mL BSA, 0.01 mg/mL Herring testis DNA, 6.6 μM ATP, 0.1 mM GTP, 1.5 μg/mL of recombinant human cGAS (aa147-522) and serial dilutions of a test compound in DMSO is added to a 96-well plate and incubated at 37° C. for 20 minutes. At the end of reaction, 40 μL of KinaseGlo Max (Promega) is added and chemiluminescence was measured with a luminometer. Inhibitory effect of a compound is evaluated by plotting percentage of ATP consumption against logarithm of compound concentrations. IC50 value is calculated using GraphPad Prism 8 (GraphPad Software, Inc.).
The letter codes for cGAS IC50 include: A (<2 μM); B (2-30 μM); C (>30 μM).

T1 sequence (Q8N884 147-522): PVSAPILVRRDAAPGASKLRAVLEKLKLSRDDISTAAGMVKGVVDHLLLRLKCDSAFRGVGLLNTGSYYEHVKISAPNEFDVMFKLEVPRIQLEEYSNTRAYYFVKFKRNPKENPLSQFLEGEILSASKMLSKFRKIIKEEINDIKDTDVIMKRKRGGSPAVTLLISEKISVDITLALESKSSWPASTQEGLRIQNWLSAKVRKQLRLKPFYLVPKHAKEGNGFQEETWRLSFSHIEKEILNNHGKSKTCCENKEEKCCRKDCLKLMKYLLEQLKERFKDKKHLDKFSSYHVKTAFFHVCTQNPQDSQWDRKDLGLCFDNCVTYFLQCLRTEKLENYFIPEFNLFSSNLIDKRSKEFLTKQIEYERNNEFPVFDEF

As to `O=C(O)CCOC[C@@H]1CCCN1c1cc(-c2cnco2)c2ccc(Br)cc2n1` [I-903, (S)-3-((1-(7-bromo-4-(oxazol-5-yl)quinolin-2-yl)pyrrolidin-2-yl)methoxy)propanoic acid], the IC50 in experiment [1] was 2000 to 10000 nM; in experiment [2] it was less than 2000 nM.
For `O=C(O)CCOC[C@@H]1CCCN1c1cc(-c2ccncc2)c2ccc(Cl)c(Cl)c2n1` [I-916], in that order: more than 10000 nM and more than 30000 nM.
For `O=C(O)CCOC[C@H]1CCCN1c1cc(-n2cncn2)c2cc(Cl)c(Br)cc2n1` [I-924], in that order: more than 10000 nM and 2000 to 30000 nM.
Take `O=C(O)CCOC[C@@H]1CCCN1c1cc(-n2cncn2)c2c(Cl)c(Cl)ccc2n1` [I-932]: the 50% inhibitory concentration (IC50) in experiment [1] and in experiment [2] was less than 2000 nM throughout.
`O=C(O)CCOC[C@@H]1CC2(CC2)CN1c1cc(-n2cncn2)c2ccc(Cl)c(Cl)c2n1` [I-898]: the half-inhibitory concentration (IC50) in experiment [1] and in experiment [2] was less than 2000 nM each time.

These data come from patent publication US12091387B2, “Quinoline cGAS antagonist compounds” (IMMUNESENSOR THERAPEUTICS, INC., priority 2022, dated 2024).
